What is called inhibition is the relative decrease from the control value, in per cent.

The text below walks through data of patent publication US5945436A, “Pyridylmethyl nitriles, amides and thioamides useful as fungicides” (Uniroyal Chemical Company, Inc., priority 1997, dated 1999).

SMILES strings stand for the structures.

The test system of test [1] is Erysiphe graminis. Kind of test: Powdery mildew of barley, systemic root uptake (BMS). It is filed as in vivo. Particulars: 45 ml of 250 mg/l, 8 days after inoculation. In a few lines:
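Pot soil of barley (BMS) and cucumber (CMS) plants was drenched with 45 ml of a 250 mg/l acetone/Tween 20 aqueous emulsion, with untreated plants as controls. Disease was scored on a rating scale that included intermediate grades.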

For test [2], the system named is Erysiphe polygoni. Nature of the test: Powdery mildew on pinto bean, foliar application (ERY POL). It counts as in vivo. Particulars: similar procedure as barley (1,000 mg/l); for pest or weed control at 1000 µg/mL: Erysiphe polygoni, read-out: Percent Reduction of Disease, ERY POL. In a few lines:
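Pinto bean plants sprayed with compound emulsion (acetone or inert solvent, TWEEN 20, water) at 1,000 mg/l, or left unsprayed, dried, then inoculated with Erysiphe polygoni spores in a 21° C greenhouse. Disease scored; percent control computed against untreated controls.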

Test [3] relates to Pyricularia oryzae. Kind of test: whole plant or invertebrate. It counts as in vivo. Particulars: for pest or weed control at 1000 µg/mL: Pyricularia oryzae, in Hordeum vulgare, foliar, 216 h, read-out: Percent Reduction of Disease, PYR ORY, barley, foliar, 1,000 mg/l; for Percent Reduction of Disease, PYR ORY: barley, foliar, 1,000 mg/l.
The subject of test [4] is Helminthosporium sativum. Kind of test: Barley spot blotch, foliar treatment (HEL SAT). It counts as in vivo. Particulars: foliar, 1,000 mg/l; for pest or weed control at 1000 µg/mL: Helminthosporium, foliar, 216 h, read-out: Percent Reduction of Disease, HEL SAT. Summed up: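 Percent control of H. sativum blotch was computed after foliar spraying of six-day-old "Robust" barley (10 plants/pot) at 1,000 mg/l versus unsprayed pots. Spore inoculation followed spraying, then 24 h in a 99% humidity chamber and eight days in a 21° C greenhouse.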

The test system of test [5] is Pythium ultimum. Nature of the test: Fungal growth inhibition, treated disc on agar (PYT ULT). Particulars: disc dipped in 500 mg/l, 29° C.; for inhibition at 500 µg/mL: Globisporangium ultimum, read-out: Percent Growth Inhibition, PYT ULT. It is filed as cell-based.
Source text: (§1) Filter paper discs, each 11 mm. in diameter, were dipped in each of the test solutions. The discs were allowed to air dry to drive off the acetone solvent. A number of untreated discs were used as controls.
(§2) The treated and untreated discs were then placed on agar plates and one of the following fungus species: Septoria nodorum (SEP NOD), Botrytis cinerea (BOT CIN), Fusarium oxysporum (FUS OXY), Pythium ultimum (PYT ULT), Rhizoctonia solani (RHI SOL), Colletotrichum gossypii (COL GOS), and Scierotinia minor (SCL MIN), was added to the center of each disc in the form of a culture plug with the fungus mat in contact with the paper of the test disc. Cercosporidium personatum (CER PER), was added to discs as a spore suspension (20,000 spores/ml) to the disc (two drops of spore suspension per disc), rather than a mycelial culture plug. The plates were then incubated at 29° C. in an oven.
(§3) With the exception of the discs containing Cercosporidium personatum, the discs were evaluated by first measuring the radius from the center of the fungus colony on the treated discs and on the untreated discs. Percent growth inhibition of each of the compounds tested was determined as a function of the difference between the radius of the fungus colony on the treated disc versus the radius of the fungus colony on the untreated disc.
Test [6] has as its system Scierotinia minor. Kind of test: Fungal growth inhibition, treated disc on agar (SCL MIN). It is filed as cell-based. The conditions noted are these: disc dipped in 500 mg/l, 29° C.; for inhibition at 500 µg/mL: read-out: Percent Growth Inhibition, SCL MIN.
Test [7] has as its system Rhizoctonia solani. Kind of test: Fungal growth inhibition, treated disc on agar (RHI SOL). The conditions noted are these: disc dipped in 500 mg/l, 29° C.; for inhibition at 500 µg/mL: Rhizoctonia solani, read-out: Percent Growth Inhibition, RHI SOL. It is filed as cell-based.
Test [8] concerns Colletotrichum gossypii. Kind of test: Fungal growth inhibition, treated disc on agar (COL GOS). It counts as cell-based. Particulars: disc dipped in 500 mg/l, 29° C.; for inhibition at 500 µg/mL: Colletotrichum gossypii, read-out: Percent Growth Inhibition, COL GOS.
Source text: as §1, §2, §3

In the case of `COc1ccc(CCC(C#N)(CC=C(C)C)c2cccnc2)cc1` (stereo not drawn) [Compound 48], the “Percent Reduction of Disease, BMS” value in test [1] was 0%. The pest or weed control at 1000 µg/mL in test [2] was 90%; in test [3], 33%; in test [4], 100%. For the same molecule, the inhibition at 500 µg/mL in test [5] worked out at 53%; in test [6], 100%; in test [7] it was 28%; in test [8], 100%.

Turning to `CC(C)CCC(C#N)(CCc1ccc(F)cc1)c1cccnc1` (stereo not drawn) [Compound 49], the “Percent Reduction of Disease, BMS” value in test [1] is 0%. Moreover, the values for the pest or weed control at 1000 µg/mL in test [2] and in test [4] were 90% and 100%, respectively. The “Percent Reduction of Disease, PYR ORY” value in test [3] was determined as 17%. Besides, the “Percent Growth Inhibition, PYT ULT” value in test [5] is listed as 76%. In test [6], the “Percent Growth Inhibition, SCL MIN” value amounted to 100%. The “Percent Growth Inhibition, RHI SOL” value in test [7] came to 100%. The “Percent Growth Inhibition, COL GOS” value in test [8] is on record as 100%.

For `COCC(C#N)(CCc1ccc(OC)cc1)c1cccnc1` (stereo not drawn) [Compound 50], the “Percent Reduction of Disease, BMS” value in test [1] was 0%. Further, the pest or weed control at 1000 µg/mL in test [2] amounted to 100%; in test [3], 0%; in test [4], 100%. The inhibition at 500 µg/mL in test [5] turned out to be 10%; in test [6], 100%; in test [7], 20%; in test [8], 100%.

In the case of `COCC(C#N)(CCc1ccc(F)cc1)c1cccnc1` (stereo not drawn) [Compound 51], the “Percent Reduction of Disease, BMS” value in test [1] stood at 90%. The values for the pest or weed control at 1000 µg/mL in test [2], in test [3] and in test [4] were 85%, 20% and 90%, respectively. Further, the inhibition at 500 µg/mL in test [5] was determined as 0%; in test [6], 100%; in test [7], 30%; in test [8] it was 100%.

With `N#CC(CCc1ccc(F)cc1)(CC(F)(F)F)c1cccnc1` (stereo not drawn) [Compound 52], the “Percent Reduction of Disease, BMS” value in test [1] is 100%. Also, the pest or weed control at 1000 µg/mL in test [2] is 100%; in test [3], 90%; in test [4] it was 100%. Besides, the inhibition at 500 µg/mL amounted to 0% in test [5], 100% in test [6], 100% in test [7] and 100% in test [8].

Take `N#CC(CCF)(CCc1ccc(F)cc1)c1cccnc1` (stereo not drawn) [Compound 53]: the “Percent Reduction of Disease, BMS” value in test [1] was 100%. Also, the figures for the pest or weed control at 1000 µg/mL in test [2], in test [3] and in test [4] were 90%, 70% and 90%, respectively. For the same molecule, the inhibition at 500 µg/mL in test [5] was determined as 5%; in test [6], 100%; in test [7], 75%; in test [8], 100%.

On to `CCCCOc1ccc(CCC(C#N)(CCCC)c2cccnc2)cc1` (stereo not drawn) [Compound 54], for which the “Percent Reduction of Disease, BMS” value in test [1] came to 0%. Further, the pest or weed control at 1000 µg/mL in test [2] came out at 90%; in test [3], 90%; in test [4], 100%. Further, the inhibition at 500 µg/mL in test [5] was 5%; in test [6], 100%; in test [7] it was 100%; in test [8], 100%.

As for `CC(C)CCC(C#N)(CCc1ccc(F)cc1)c1cccnc1` (stereo not drawn) [Compound 55], the “Percent Reduction of Disease, BMS” value in test [1] stood at 75%. Moreover, the “Percent Reduction of Disease, ERY POL” value in test [2] is recorded as 85%. In test [3], the “Percent Reduction of Disease, PYR ORY” value is on record as 70%. Besides, in test [4], the “Percent Reduction of Disease, HEL SAT” value amounted to 90%. Also, the “Percent Growth Inhibition, PYT ULT” value in test [5] was 20%. Moreover, in test [6], the “Percent Growth Inhibition, SCL MIN” value is 55%. Also, in test [7], the “Percent Growth Inhibition, RHI SOL” value came out at 50%. In test [8], the “Percent Growth Inhibition, COL GOS” value worked out at 30%.

For the molecule `C=CCC(C#N)(CCc1ccc(OCCCC)cc1)c1cccnc1` (stereo not drawn) [Compound 56], the “Percent Reduction of Disease, BMS” value in test [1] came to 0%. Moreover, the values for the pest or weed control at 1000 µg/mL in test [2], in test [3] and in test [4] were 90%, 90% and 100%, respectively. For the same molecule, the inhibition at 500 µg/mL in test [5] worked out at 5%; in test [6] it was 45%; in test [7], 45%; in test [8], 35%.

In the case of `CCCCOc1ccc(CCC(C#N)(CCC)c2cccnc2)cc1` (stereo not drawn) [Compound 57], the “Percent Reduction of Disease, BMS” value in test [1] was 0%. The pest or weed control at 1000 µg/mL was found to be 90% in test [2], 100% in test [3] and 100% in test [4]. Also, the inhibition at 500 µg/mL in test [5] turned out to be 5%; in test [6], 65%; in test [7] it was 40%; in test [8] it was 15%.

As to `CCCCOc1ccc(CCC(C#N)(CC(C)C)c2cccnc2)cc1` (stereo not drawn) [Compound 58], the “Percent Reduction of Disease, BMS” value in test [1] was found to be 0%. The figures for the pest or weed control at 1000 µg/mL in test [2], in test [3] and in test [4] were 85%, 85% and 0%, respectively. The inhibition at 500 µg/mL is 0% in test [5], 75% in test [6], 5% in test [7] and 15% in test [8].

Consider `CC=CCC(C#N)(CCc1ccc(F)cc1)c1cccnc1` (stereo not drawn) [Compound 59], for which the “Percent Reduction of Disease, BMS” value in test [1] was 75%. Further, the pest or weed control at 1000 µg/mL in test [2] was determined as 90%; in test [3] it was 85%; in test [4], 90%. For the same molecule, the inhibition at 500 µg/mL was determined as 5% in test [5], 70% in test [6], 5% in test [7] and 100% in test [8].

As for `CCCCCC(C#N)(CCc1ccc(F)cc1)c1cccnc1` (stereo not drawn) [Compound 60], the “Percent Reduction of Disease, BMS” value in test [1] is 75%. For the same molecule, the pest or weed control at 1000 µg/mL in test [2] amounted to 90%; in test [3] it was 70%; in test [4], 90%. In addition, the inhibition at 500 µg/mL is 50% in test [5], 100% in test [6], 100% in test [7] and 30% in test [8].

Consider `C#CCC(CCc1ccccc1)(C(N)=S)c1cccnc1` (stereo not drawn) [Compound 61, α-(2-phenylethyl)-α-(2-propynyl)-3-pyridinethanethioamide], for which the “Percent Reduction of Disease, BMS” value in test [1] is on record as 20%. The pest or weed control at 1000 µg/mL in test [2] came to 100%; in test [3], 50%; in test [4], 85%. Also, the inhibition at 500 µg/mL in test [5] is 100%; in test [6], 100%; in test [7], 80%; in test [8], 100%.

`CCCCCC(CCc1ccc(F)cc1)(C(N)=O)c1cccnc1` (stereo not drawn) [Compound 62]: the “Percent Reduction of Disease, BMS” value in test [1] was 20%. For the same molecule, the pest or weed control at 1000 µg/mL in test [2] is 100%; in test [3], 0%; in test [4], 0%. The inhibition at 500 µg/mL was 5% in test [5], 100% in test [6], 5% in test [7] and 25% in test [8].

Regarding `CCCCC(C#N)(CCCc1ccccc1OC)c1cccnc1` (stereo not drawn) [Compound 63], in test [1], the “Percent Reduction of Disease, BMS” value stood at 0%. Besides, the pest or weed control at 1000 µg/mL in test [2] turned out to be 100%; in test [3], 0%; in test [4] it was 0%. Moreover, the inhibition at 500 µg/mL in test [5] was determined as 10%; in test [6] it was 100%; in test [7], 5%; in test [8], 25%.

Turning to `N#CC(CCCF)(CCc1ccc(F)cc1)c1cccnc1` (stereo not drawn) [Compound 64], in test [1], the “Percent Reduction of Disease, BMS” value is reported as 20%. The pest or weed control at 1000 µg/mL in test [2] turned out to be 100%; in test [3], 20%; in test [4], 85%. For the same molecule, the inhibition at 500 µg/mL in test [5] stood at 0%; in test [6], 50%; in test [7], 20%; in test [8], 55%.

Turning to `N#CC(CCCF)(CCc1ccccc1F)c1cccnc1` (stereo not drawn) [Compound 66], in test [1], the “Percent Reduction of Disease, BMS” value was 100%. For the same molecule, the results for the pest or weed control at 1000 µg/mL in test [2], in test [3] and in test [4] were 100%, 0% and 100%, respectively. Further, the inhibition at 500 µg/mL in test [5] was 0%; in test [6] it was 100%; in test [7], 45%; in test [8] it was 100%.
